{"source": "paper PMC11571108", "about": "“Targeting PfCLK3 with Covalent Inhibitors: A Novel Strategy for Malaria Treatment” (Journal of Medicinal Chemistry, 2024)", "key": {"[1]": {"system": "asexual P. falciparum 3D7 parasites", "assay": "Time of inhibition assays in 3D7 parasites", "format": "cell-based", "details": "Plasmodium falciparum, read at 72 hpi", "description": "Synchronised parasites between 0.4 and 0.6% parasitemia at 4% hematocrit were plated in 384 well plates. To early ring stage plate (0−) rings, serially diluted drugs were added to the parasites in triplicate and incubated as plate 1. At 16 hpi, late ring stage parasites were exposed to the same drug concentrations previously diluted as in plate 1. This was repeated for 24 hpi plates. […] As described previously, the plates were thawed at RT for about an hour before they were SyBr green stained in lysis buffer."}, "[2]": {"system": "PfCLK3 kinase domain (334–699)", "assay": "Intact protein mass spectrometry, covalent adduct formation", "format": "binding, Plasmodium falciparum", "details": "for Covalent Adduct Formation (%): pH 7.4, 4 h incubation", "excerpt": "Covalent adduct formation was investigated by intact protein mass spectrometry."}}, "note": "Read-outs that look alike come from different tables or passages of the source.", "data": [{"smiles": "C[C@@H]1CC[C@H]2[C@@H](C)C(=O)O[C@@H]3O[C@@]4(C)CC[C@@H]1[C@]32OO4", "note": "[Artemisinin]", "values": [{"measurement": "EC50", "setting": "[1]; dosed at 16 hpi, read-out: pEC50 (3D7) 16 hpi (converted)", "value": 112, "unit": "nM"}, {"measurement": "EC50", "setting": "[1]; dosed at 24 hpi, read-out: pEC50 (3D7) 24 hpi (converted)", "value": 95.5, "unit": "nM"}, {"measurement": "EC50", "setting": "[1]; dosed at early-ring stage (0 h), read-out: pEC50 (3D7) 0-3 hpi (converted)", "value": 13.5, "unit": "nM"}]}, {"smiles": "C=CC(=O)N1CCN(Cc2ccc(OC)c(-c3cc4c(-c5ccc(C(=O)O)cc5)ccnc4[nH]3)c2)CC1", "note": "[Compound 2, 4-[2-(2-methoxy-5-{[4-(prop-2-enoyl)piperazin-1-yl]methyl}phenyl)-1H-pyrrolo[2,3-b]pyridin-4-yl]benzoic Acid]", "values": [{"measurement": "covalent adduct formation (observed or not)", "setting": "[2]; pH 7.4, 4 h", "value": "no covalent adduct formation was observed"}, {"measurement": "Covalent Adduct Formation (%)", "setting": "[2]", "value": 0, "unit": "%"}, {"measurement": "covalent adduct formation (observed or not)", "setting": "[2]; pH raised to 9", "value": "adduct formation was observed"}]}, {"smiles": "COc1ccc(CN2CCN(C(=O)/C=C/CN(C)C)CC2)cc1-c1cc2c(-c3ccc(C(=O)O)cc3)ccnc2[nH]1", "note": "[Compound 3, 4-{2-[5-({4-[(2E)-4-(dimethylamino)but-2-enoyl]piperazin-1-yl}methyl)-2-methoxyphenyl]-1H-pyrrolo[2,3-b]pyridin-4-yl}benzoic Acid]", "values": [{"measurement": "covalent adduct formation (observed or not)", "setting": "[2]; pH 7.4, 4 h", "value": "no adduct formation"}, {"measurement": "Covalent Adduct Formation (%)", "setting": "[2]", "value": 0, "unit": "%"}]}]}
